Earlier results on 4 molecules are cited in patent US20260076921A1, “Transdermal Pharmaceutical Formulations for the Treatment of Multiple Sclerosis” (Pike Therapeutics Inc., priority 2020, published 2026).

Where “and” joins values, the source holds several entries; their conditions need not be identical. Identical values can stand only once.

The conditions of series [1]: literature ranges.
The conditions of series [2]: 6.2 mg/day dose.

As for `CCCCCn1cc(C(=O)c2ccc(Cl)c3ccccc23)c2ccccc21` [JWH-398], the Ki – broadly, a measure of affinity in units of concentration, obtained from inhibition or displacement – on CB1 is 2.3 nM.

For `C=C(C)[C@@H]1CCC(C)=C[C@H]1c1c(O)cc(CCCCC)cc1O` [CBD, 2-[(1R,6R)-6-isopropenyl-3-methylcyclohex-2-en-1-yl]-5-pentylbenzene-1,3-diol], in series [1], the Oral bioavailability was 13-19% and 5-6%. Moreover, the “effect on knee-joint swelling” value in series [2] is “very effective to reduce knee-joint swelling”.

Turning to `CCCCC/C=C\C/C=C\C/C=C\C/C=C\CCCC(=O)N[C@H](C)CO` [Methanandamide], the inhibitory constant (Ki) on CB1 is 17.9 nM.

On to `CCCCCn1cc(C(=O)c2cccc3cccc(Br)c23)c2ccccc21` [JWH-424], for which, at CB1, the Ki is 20.9 nM.
